“Also recorded” adds a separate entry of the source.
How the values were obtained:
[1] = tested on: J-Lat cells (clone A2: LTR-Tat-IRES-GFP); format: cell-based
Description: To test this hypothesis, J-Lat cells (clone A2: LTR-Tat-IRES-GFP) were treated with SMYD2 inhibitors. […] Both cell lines were co-treated with X2 and Ingenol 3,20-dibenzoate (a protein kinase C (PKC) activator), JQ1 (BET-bromodomain inhibitor), or the histone deacetylase (HDAC) inhibitor suberoylanilidehydroxamic acid (SAHA).

[2] = tested on: latent HIV-1 in primary CD4+ T cells; assay: Primary T-cell model of HIV latency (Greene model), NL4-3-Luc luciferase; format: cell-based
Description: Peripheral blood mononuclear cells (PBMC) were isolated by Ficoll-Hypaque density gradient centrifugation of buffy coats from HIV-seronegative donors (Blood Centers of the Pacific). PBMCs were immediately processed to isolate CD4^+ T cells. Total CD4^+ T cells were isolated by negative selection, according to manufacturer's protocol, with the EasySep CD4^+ T-cell Enrichment Kit (Stem Cell Technologies). Isolated CD4^+ T cells were cultured in RPMI as described above at a concentration of 1×10^6 cells/ml for 24 h before HIV infection.
CD4^+ T cells were counted, collected as pellets by centrifugation at 1500 rpm for 5 min at room temperature, and resuspended in the appropriate volume of concentrated viral NL4-3-Luc supernatant. Typically, 50-200 ng of p24Gag per 4×10^5 CD4^+ T cells were used. Spinoculations with NL4-3-Luc virus were performed in 96-well V-bottom plates with up to […] HLAC or CD4 T cells per well. All spinoculations were performed in volumes of 200 μl or less. Cells and virus were centrifuged at 2000 rpm for 1.5-2 h at room temperature. After spinoculation, cells were pooled and cultured at a concentration of 1×10^6 cells/ml in RPMI 1640 containing 10% FBS and supplemented with 5 μM saquinavir for 3 days to prevent residual spreading infection. Saquinavir was purchased from Sigma.
For reactivation of latent HIV-1 provirus, cells were counted and collected as pellets by centrifugation at 1500 rpm for 10 min. Cells were then plated in 96-well U-bottom plates at concentrations of 1×10^6/200 μl in the presence of the indicated activator. Unless otherwise indicated, cells were cultured either in medium alone or stimulated with 5 μg/ml phytohemagglutinin (PHA) (Sigma), 10 ng/ml TNF-α, anti-CD3+anti-CD28 beads at a ratio of 1:1. SAHA, JQ1 and X2 were tested at the indicated concentrations. Cells were harvested 48 hr after stimulation, washed one time with PBS, and lysed in 60 μl of Cell Lysis Buffer (Promega). After 15 min of lysis, the luciferase activity in cell extracts was quantified with a BD Monolight Luminometer after mixing 20 μl of lysate with 100 μl of substrate (Luciferase Assay System-Promega). Relative light units were normalized to protein content determined by BCA assay (Pierce). Cell survival rates were measured by flow cytometry immediately before lysis.
Since X2 activated HIV from latency in A2 and A72 cell lines, this compound was tested in a primary T-cell model of latency (Lassen, Greene). In this model, CD4+ T cells were infected in a single-round infection with HIV clone NL4-3-Luc to generate a latent infection in vitro. To reactivate latent HIV-1, cells were treated with the indicated compounds or a combination of PHA/IL-2 as a control for maximal activation. X2 in combination with JQ1 reactivated latent HIV-1 at 8-25% of the rate achieved by costimulation with PHA/IL-2 (FIG. 9). X2 in combination with Ingenol 3,20-dibenzoate reactivated latent HIV-1 at 30-85% of the rate achieved by costimulation with PHA/IL-2 (FIG. 10).

[3] = target: SMYD2 (Homo sapiens, UniProt Q9NRG4); assay: In vitro SMYD2 methylation assay of histone H4; format: biochemical; set-up: purchased Sigma-Aldrich
SMYD2, sequence (Q9NRG4 whole entry): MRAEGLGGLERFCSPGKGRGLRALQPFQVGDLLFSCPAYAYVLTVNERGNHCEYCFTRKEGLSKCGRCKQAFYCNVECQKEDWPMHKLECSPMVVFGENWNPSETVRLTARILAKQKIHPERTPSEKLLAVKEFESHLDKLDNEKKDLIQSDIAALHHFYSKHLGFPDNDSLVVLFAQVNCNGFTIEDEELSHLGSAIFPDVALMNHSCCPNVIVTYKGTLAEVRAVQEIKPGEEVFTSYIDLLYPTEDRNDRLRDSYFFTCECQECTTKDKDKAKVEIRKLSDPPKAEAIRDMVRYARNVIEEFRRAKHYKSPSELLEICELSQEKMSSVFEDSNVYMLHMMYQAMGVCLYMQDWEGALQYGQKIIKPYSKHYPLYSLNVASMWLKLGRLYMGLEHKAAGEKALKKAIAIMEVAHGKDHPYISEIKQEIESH
Description: In vitro Methylation assays were performed as described (Nishioka et al., 2002). For reactions, 2 gtg of histones (isolated from HEK293T cells), recombinant histone 4 (New England Biolabs), synthetic histone 4 as 1-21 and as 15-24 peptides (Cayman Chemical), or synthetic histone H4 as 1-21 with a K20A mutation (GenScript) were incubated with recombinant WT SMYD2 (Sigma-Aldrich) or SMYD2 Y240F (Active Motif) in a buffer containing 50 mM Tris-HCl, pH 9, 0.01% Tween 20, 2 mM DTT and 1.1 μCi of H3-labeled SAM (Perk-in Elmer) overnight at 30° C. Reaction mixtures were fractionated on 15% SDS-PAGE for proteins or on 10-20% Tris-Tricine gradient gels for peptides (BioRad). After Coomassie staining, gels were treated with Amplify. (GE Healthcare) for 30 min, dried and exposed to hyperfilm (GE Healthcare) overnight.

N#Cc1cc(C(=O)NCCCN2CCCC2)cc(-c2ccccc2N2CCN(CCc3c[nH]c4ccccc34)CC2)c1 [AZ391]
GFP-expressing cells compared with control-treated cells ([1]; A2 J-Lat cells): up to threefold more GFP-expressing cells than control-treated cells | activation of HIV transcription / reactivation of the HIV-LTR (GFP) ([1]; A2 J-Lat cells, single agent): activated HIV transcription in a dose-dependent manner | cell death ([1]; at the concentration that effectively activated HIV transcription): slight increase in cell death | reactivation of latent HIV-1 as % of the rate achieved by costimulation with PHA/IL-2 ([2]; in combination with Ingenol 3,20-dibenzoate): 30-85% | reactivation of latent HIV-1 as % of the rate achieved by costimulation with PHA/IL-2 ([2]; in combination with JQ1): 8-25% | reactivation of latent HIV-1, synergy ([2]; with JQ1): synergy | reactivation of latent HIV-1, combination effect ([2]; with SAHA, listed as X2): modest activation; also recorded: minimal synergy | reactivation of latent HIV-1, synergy ([2]; with ingenol 3,20-dibenzoate): synergy | methylation of recombinant human histone H4 by SMYD2 ([3]; full-length histone H4, 3H-SAM autoradiography): inhibited | methylation of synthetic histone H4 peptides by SMYD2 ([3]; peptides aa 1-21 and aa 15-24): suppressed

Reference: patent US11807852B2, “Compositions and methods for reactivating latent immunodeficiency virus” (The J. David Gladstone Institutes, a testamentary trust …, priority 2014, dated 2023)
